{"source": "patent US20240270811A1", "about": "“Glycosylated Neuropeptide Derivative, Pharmaceutical Composition, Intranasal/Nasal Drop Formulation, and Use of Pharmaceutical Composition” (Tokyo University of Science Foundation, priority 2021, published 2024)", "key": {"[1]": {"assay": "Observation of section of trigeminal lemniscus after intranasal administration", "type": "in vivo", "conditions": "3.0 nmol/mouse intranasal, 15 minutes", "method": "Mice were intranasally administered with 16% DMSO or a glycosylated GLP-2 derivative (3.0 nmol/mouse). The brain was isolated 15 minutes after the administration, and was subjected to infiltration fixation with 4% PFA overnight. On the day following the isolation, the brain was substituted with 30% sucrose overnight (4° C.). Thereafter, a frozen section of trigeminal lemniscus with a thickness of 30 μm was prepared using a cryostat (CM3050S; Leica Microsystems, WetZlar, Germany).\nThe frozen section was mounted on a slide glass, and was subjected to blocking for 30 minutes at room temperature with a blocking buffer. Thereafter, the section was added with a first antibody solution including Neuro-Chrom (trade name) Pan Neuronal Marker Antibody-Rabbit, diluted with a blocking buffer (1:500), and subjected to incubation overnight (4° C.). After washing three times with 1×PBS, the section was added with a first antibody solution including a GLP-2 polyclonal antibody diluted with a BSA/PBS solution (1:200), and subjected to incubation for 2 hours at room temperature. After washing three times with 1×PBS, the section was added with a second antibody solution including Alexa Fluor (trademark) 568 Goat Anti-Mouse IgG H&L, diluted 1000 times with a 1% BSA/PBS solution and DAPI ([…]), and subjected to incubation for 1 hour at room temperature. […]"}, "[2]": {"assay": "Observation of section of trigeminal nerve after intranasal administration (FITC-labelled)", "type": "in vivo, mouse", "conditions": "3.0 nmol/4 μL intranasal, 5 minutes", "method": "After anesthetizing 7-week-old male ddY mice with isoflurane using an all-in-one small animal anesthetizer, a 16% DMSO solution of a PAS-CPP-GLP-2 derivative (11-sugar) labeled with FITC (3.0 nmol/4 μL) or 16% DMSO as a control was intranasally administered to the mice by the amount of 2 μL per nose cavity, 4 μL in total. The trigeminal nerve was isolated 5 minutes after the administration.\nThe trigeminal nerve was subjected to infiltration fixation with 4% PFA overnight. On the day following the isolation, the trigeminal nerve was substituted with 20% sucrose overnight (4° C.), and further with 30% sucrose overnight (4° C.). Thereafter, a frozen section with a thickness of 20 μm was prepared using a cryostat (CM3050S; Leica Microsystems).\nThe frozen section was mounted on a slide glass, and a circle was drawn around the section with a liquid blocker. To the inner side of the circle, 10 mM CuSO4/CH3COONH4 having an ability to suppress auto-fluorescence was added to immerse the section for 15 minutes. After washing three times with 1×PBS, a blocking buffer was added inside the circle and the section was subjected to blocking for 30 minutes at room temperature. […]"}, "[3]": {"assay": "Amount of migration to brain quantified by GLP-2 ELISA", "type": "in vivo", "conditions": "in vivo, inhaled or intranasal, 6.0 nmol/mouse intranasal, brain isolated 20 minutes after administration, read-out: amount of GLP-2 derivative in brain", "method": "Mice were intranasally administered with 16% DMSO or GLP-2 derivatives (6.0 nmol/mouse). The brain was isolated 20 minutes after the administration, and homogenized with BioMasher II (Nippi, Tokyo, Japan). A sample was prepared by performing centrifugal separation by 1000×g for 15 minutes and collecting a supernatant. The amount of a GLP-2 derivative in the sample was quantified using a GLP-2 ELISA kit. Specifically, a cleaning process including filling each well of a measurement plate with a cleaning fluid (350 μL) and suctioning the cleaning fluid with a pipette was performed three times. Subsequently, a labeled antigen solution (40 μL), a sample (25 μL) and a specific antibody solution (50 μL) were added in this order to the well and mixed. The measurement plate was tightly sealed and allowed to stand for 18 hours at 4° C. The cleaning process was performed three times, and a SA-HRP solution (100 μL) was added and allowed to permeate for 1.5 hours at room temperature (60 rpm). […] Finally, an enzyme reaction stop solution (100 μL) was added and an absorbance at 490 nm was measured with ARVO (PerkinElmer Japan Co., Ltd., Kanagawa, Japan) to calculate the concentration of a GLP-2 derivative."}}, "note": "Where no end group is shown, it is not given here. The star is where a group is joined. X1 = CC(=O)N[C@@H]1[C@@H](O)[C@H](O[C@@H]2O[C@H](CO)[C@@H](O[C@@H]3O[C@H](CO[C@H]4O[C@H](CO)[C@@H](O)[C@H](O)[C@@H]4O[C@@H]4O[C@H](CO)[C@@H](O[C@@H]5O[C@H](CO[C@]6(C(=O)O)C[C@H](O)[C@@H](NC(C)=O)[C@H]([C@H](O)[C@H](O)CO)O6)[C@H](O)[C@H](O)[C@H]5O)[C@H](O)[C@H]4NC(C)=O)[C@@H](O)[C@H](O[C@H]4O[C@H](CO)[C@@H](O)[C@H](O)[C@@H]4O[C@@H]4O[C@H](CO)[C@@H](O[C@@H]5O[C@H](CO[C@]6(C(=O)O)C[C@H](O)[C@@H](NC(C)=O)[C@H]([C@H](O)[C@H](O)CO)O6)[C@H](O)[C@H](O)[C@H]5O)[C@H](O)[C@H]4NC(C)=O)[C@@H]3O)[C@H](O)[C@H]2NC(C)=O)[C@@H](CO)O[C@H]1NC(=O)C*"}
{"substance": "FFLIPKGRRRRRRRRGGHADGSFSDEMNTILDNLAARDFINWLIQTKITDC(X1)-OH [PAS-CPP-GLP-2 (11-sugar)]", "values": [{"measurement": "fluorescence in nerve bundle that constitutes the trigeminal lemniscus", "setting": "[1]", "result": "a large amount of fluorescence for a drug was observed"}, {"measurement": "fluorescence in section of trigeminal nerve (overlap of derivative and neural fibers)", "setting": "[2]", "result": "expresses yellow fluorescence"}, {"measurement": "tissue level at time molar at 20 min", "setting": "[3]", "result": "0.0106 ± 0.000998", "unit": "nmol/g"}]}
